The text below walks through data of patent publication US6444646B1, “Use of angiotensin II type 2 receptor agonists in tissue repair” (University of Southern California, priority 1995, dated 2002).

For one assay, the system named is wound tissue. Conditions: applied to wound tissue; cited from earlier work.
In assay [1] the test system is full thickness dermal wounds. Put plainly: rat model for dermal repair (full thickness dermal wounds). Particulars: 100 μg/d for 5 days. Format: in vivo. How it is done: Female Sprague Dawley rats, 175-200 g, were obtained from Simonsen Laboratories, Gilroy, Calif. On the day of surgery, the rats received intramuscular ketamine/rompum anesthesia prior to preparation for surgery. The rats were shaved and scrubbed with betadine. Two 1.5×1.5 cm full thickness dermal wounds were created on the dorsal surface of the rat. Following excision of the skin, the size of the wound was outlined on a glass slide and the medicament was administered in 100 μl 10% low viscosity carboxymethyl cellulose (Sigma). The test materials were administered in a randomized fashion; all materials were tested at 100 μg/wound. Controls were treated with vehicle only. After administration of the materials, the rats were bandaged and allowed to recover from anesthesia. On days 1-4 after surgery, the rats were treated with an additional 100 μg of peptide formulation. At days 2, 4 ,7 and 9, the area of the skin wounds were measured under methoxyflurane anesthesia (commercially available as Metofane from Pittman-Moore, Mundelein, Ill.). The area of the wound was determined by (1) tracing the wound shape onto graph paper (1×1 mm squares); (2) cutting out the shape; (3) weighing the paper and comparing the weight with a 1.5×1.5 cm paper cutout; and (4) counting the number of squares. In addition, on days 2, 4 and 7, the area of granulation tissue was similarly determined.
As illustrated in FIGS. 1-2, wound closure and the formation of granulation tissue was substantially accelerated relative to the control animals when the test animals were treated with an AT2 agonist. FIG. 1 illustrates the percent of control response in wound closure relative to a vehicle-treated control; FIG. 2 illustrates the percent increase in formation of granulation tissue relative to a vehicle control.

The test system of assay [2] is AT2 receptor. Conditions: higher affinity for AT2 than AT1; cited from earlier work.
For assay [3], the system named is AT2 receptor. Conditions: experimental models tested (rabbit vas deferens; NG-108-15); cited from earlier work.
Assay [4] relates to intimal hyperplasia after balloon injury. Conditions: cited from earlier work.
Where [5] appears, read: rat dermal wounds, relative to vehicle-treated control.

Where two headings read alike, the source gives them in different places. Non-standard residues stand in square brackets, D forms with d. No end group written: not given here. Phe(4-NH2) = Nc1ccc(C[C@H](N)C(=O)O)cc1

Regarding “Asp-Arg-Val-Tyr-Ile-His-Pro-Phe (DRVYIHPF) [angiotensin II, octapeptide present in humans and other species; known pressor agent]”, the “rate of wound healing” value in the assay on wound tissue is “significantly increases”.
Consider “Asp-Arg-Val-Tyr-Ile-Xaa-Pro-Phe [SEQ ID NO:2] wherein Xaa is p-NH2-Phe (DRVYI[Phe(4-NH2)]PF) [p-aminophenylalanine6-AII]”, for which, in assay [1] (setting [5]), the granulation tissue formation result is “accelerated” and the wound closure result is “accelerated”. Also, in assay [1] (rat), the “results in dermal repair compared with AII” value was “comparable to AII”. For the same compound, the “affinity for AT2 relative to AT1” value in the assay on AT2 receptor [2] was 1000 ×. The binding characteristics entry in the assay with AT2 receptor [3] is reported as “comparable to the AT2 antagonists”.
On to CGP 42112, for which the neointimal formation entry in assay [4] (similar model, infused perivascularly for 14 days) was “prevented neointimal formation”.
For the compound `Cc1cc(Cn2cnc3c2C[C@@H](C(=O)O)N(C(=O)C(c2ccccc2)c2ccccc2)C3)ccc1N(C)C` [PD 123319], in assay [4] (rats, after balloon injury), the “reduction of intimal hyperplasia” value was 73%.
Regarding `CCCCc1nc(Cl)c(CO)n1Cc1ccc(-c2ccccc2-c2nn[nH]n2)cc1` [losartan], the neointimal formation result is reported as “effective” in assay [4] (other studies, higher doses) and “ineffective” in assay [4] (similar model, low doses). In assay [4] (rats, after balloon injury), the “decrease of intimal area” value is 95%.
